Test results published in patent publication US20250074939A1, “SEA URCHIN-DERIVED PEPTIDE AND USE THEREOF” (NATIONAL MARINE BIODIVERSITY INSTITUTE OF KOREA, priority 2021, published 2025).
pEC50, pIC50: −log10 of the molar value. Where a SMILES comes first, the peptide text is derived from it. Bridges are numbered along the chain shown (N, C = ends).

Assays:
[1] = target: T1, recombinant human vasopressin V1A receptor (Homo sapiens, UniProt P37288); experiment: cell-based
[2] = target: T2, recombinant human vasopressin V1B receptor (Homo sapiens, UniProt P47901); experiment: cell-based
[3] = target: T3, recombinant human oxytocin receptor (Homo sapiens, UniProt P30559); experiment: cell-based
[4] = tested on: tube foot and esophageal tissues isolated from Echinus esculentus; details: cited from earlier work
[5] = target: T4, recombinant human vasopressin V2 receptor (Homo sapiens, UniProt P30518); experiment: cell-based
[6] = target: T2, recombinant human vasopressin V1B receptor
[7] = target: T4, recombinant human vasopressin V2 receptor; experiment: cell-based or functional assay
[8] = target: T3, recombinant human oxytocin receptor; experiment: cell-based or functional assay
[9] = target: T5, recombinant human vasopressin V1B receptor (human) (UniProt P47901); experiment: cell-based or functional assay
T5 sequence (looked up): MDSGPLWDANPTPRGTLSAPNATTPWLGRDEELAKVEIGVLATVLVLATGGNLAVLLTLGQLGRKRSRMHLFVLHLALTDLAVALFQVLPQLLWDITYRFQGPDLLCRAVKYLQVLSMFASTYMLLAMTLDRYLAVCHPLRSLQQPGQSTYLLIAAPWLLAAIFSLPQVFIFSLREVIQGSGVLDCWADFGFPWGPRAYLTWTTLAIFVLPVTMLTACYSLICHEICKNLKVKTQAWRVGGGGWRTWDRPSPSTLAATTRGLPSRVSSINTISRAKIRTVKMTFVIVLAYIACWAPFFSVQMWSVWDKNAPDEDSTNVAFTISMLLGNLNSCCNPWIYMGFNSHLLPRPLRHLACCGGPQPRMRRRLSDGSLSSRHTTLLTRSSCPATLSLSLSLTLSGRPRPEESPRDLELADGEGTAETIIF

[10] = target: T1, recombinant human vasopressin V1A receptor; experiment: cell-based or functional assay

T1 sequence (P37288 whole entry): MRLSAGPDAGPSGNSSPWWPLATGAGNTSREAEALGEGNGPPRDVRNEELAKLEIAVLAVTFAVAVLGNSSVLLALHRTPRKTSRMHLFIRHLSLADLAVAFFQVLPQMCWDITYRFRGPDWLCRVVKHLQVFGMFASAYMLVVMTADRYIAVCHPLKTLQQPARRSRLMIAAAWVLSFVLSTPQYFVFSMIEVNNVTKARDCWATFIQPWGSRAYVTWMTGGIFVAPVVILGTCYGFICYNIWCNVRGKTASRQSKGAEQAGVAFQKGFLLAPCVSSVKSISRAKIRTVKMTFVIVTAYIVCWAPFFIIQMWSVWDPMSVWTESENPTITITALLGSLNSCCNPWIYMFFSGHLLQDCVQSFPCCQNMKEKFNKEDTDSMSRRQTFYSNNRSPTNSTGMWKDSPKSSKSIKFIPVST
T3 sequence (P30559 whole entry): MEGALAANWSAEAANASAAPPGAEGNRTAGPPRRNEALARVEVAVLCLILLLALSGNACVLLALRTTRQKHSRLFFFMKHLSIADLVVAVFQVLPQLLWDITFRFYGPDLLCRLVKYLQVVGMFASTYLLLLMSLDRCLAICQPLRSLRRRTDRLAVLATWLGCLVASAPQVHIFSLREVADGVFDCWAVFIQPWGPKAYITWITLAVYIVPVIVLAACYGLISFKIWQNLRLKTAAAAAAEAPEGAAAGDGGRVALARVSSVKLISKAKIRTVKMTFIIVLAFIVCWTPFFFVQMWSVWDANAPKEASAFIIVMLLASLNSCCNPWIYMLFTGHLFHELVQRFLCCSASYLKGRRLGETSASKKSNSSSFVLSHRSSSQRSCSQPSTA

| receptor activation: intracellular cAMP accumulation (HTRF), relative to 1 nM vasopressin [7] | receptor inhibition: intracellular calcium response to 30 nM oxytocin (calcium dye fluorescence imaging) [8] | receptor activation: increase of intracellular calcium concentration (calcium dye fluorescence imaging), relative to 0.1 µM vasopressin [9] | receptor inhibition: intracellular calcium response to 10 nM vasopressin (calcium dye fluorescence imaging) [10] | Molecule | pIC50 [1] | pEC50 [2] | pIC50 [3] | contraction of isolated tube foot and esophageal tissues [4] | pEC50 [5] | receptor selectivity at appropriate concentration [6] |
| --- | --- | --- | --- | --- | --- | --- | --- | --- | --- | --- |
|  |  |  |  | CC[C@H](C)[C@@H]1NC(=O)[C@H](Cc2ccccc2)NC(=O)[C@@H](N)CSSC[C@@H](C(=O)N2CCC[C@H]2C(=O)N[C@@H](CCCCN)C(=O)NCC(N)=O)NC(=O)[C@H](CC(N)=O)NC(=O)[C@H](CO)NC1=O [Echinotocin] (H-CFISNCPKG-NH2; disulfide 1-6; N-terminus assumed) | 6.00 | 7.31 | 5.77 | effective in contracting tube foot and esophageal tissues | 8.43 | selectively activates only the V1B receptor and has little effect on other receptors |
| 3.68 nM | 1.7 UM | 49.1 nM | 1 µM | Echinotocin (Strongylocentrotus purpuratus-derived peptide, SEQ ID NO: 1) |  |  |  |  |  |  |
